# Legend:
# [1] = tested on: HIV-1 laboratory strain, NL4-3; assay: MT-4 cytoprotection assay; type: cell-based; conditions: Human immunodeficiency virus 1, NL43, MT4, 96 h; MT-4 cells, four days incubation, WST-1 readout; read-out: MT4 EC50
# How it was run: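 MT-4 cells mock- or batch-infected with NL4-3 (MOI 0.0005) for 2 h, washed, then cultured 4 days with increasing compound concentrations. Viability read by WST-1 tetrazolium reduction: cytoprotection in infected cells, toxicity in mock-infected cells.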
# HIV-1NL4-3 = assay: P4-MAGI assay; type: cell-based; conditions: Human immunodeficiency virus 1, 24 h, P4 cells, 24 hour incubation, β-galactosidase expression; read-out: P4-MAGI IC50
# How it was run: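 HeLa-derived CD4+ P4 cells carrying an LTR-driven lacZ were infected with HIV-1NL4-3 at MOI 1 with DEAE-Dextran, then compound added in increasing concentrations right after virus; infection reported as Tat-induced β-galactosidase. TC50 measured by WST-1 in mock-infected cells.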
SMILES,EC50 [1],IC50 (HIV-1NL4-3)
C=C(C)[C@@H]1CC[C@]2(C(=O)NCCc3cccc(C(=O)NCc4ccc(C(=O)NCCN5CCCCC5)cc4)c3)CC[C@]3(C)C(CCC4[C@@]5(C)CC[C@H](O)C(C)(C)C5CC[C@]43C)C12 (stereo partly drawn) [Example 172],14 nM,93 nM
C=C(C)[C@@H]1CC[C@]2(C(=O)NCCc3cccc(C(=O)NCc4ccc(C(=O)NCCN5CCC(O)CC5)cc4)c3)CC[C@]3(C)C(CCC4[C@@]5(C)CC[C@H](O)C(C)(C)C5CC[C@]43C)C12 (stereo partly drawn) [Example 173],2 nM,28 nM
C=C(C)[C@@H]1CC[C@]2(C(=O)NCCc3cccc(C(=O)NCc4ccc(C(=O)NCCN5CCOCC5)cn4)c3)CC[C@]3(C)C(CCC4[C@@]5(C)CC[C@H](O)C(C)(C)C5CC[C@]43C)C12 (stereo partly drawn) [Example 174],7 nM,6 nM
C=C(C)[C@@H]1CC[C@]2(C(=O)NCCc3cccc(C(=O)NCc4ccc(C(=O)N[C@H](CO)C(=O)OC)cc4)c3)CC[C@]3(C)C(CCC4[C@@]5(C)CC[C@H](O)C(C)(C)C5CC[C@]43C)C12 (stereo partly drawn) [Example 175],4 nM,13 nM
C=C(C)[C@@H]1CC[C@]2(C(=O)NCCc3cccc(C(=O)NCc4ccc(C(=O)N[C@@H](C(=O)O)[C@@H](C)N5CCOCC5)cc4)c3)CC[C@]3(C)C(CCC4[C@@]5(C)CC[C@H](O)C(C)(C)C5CC[C@]43C)C12 (stereo partly drawn) [Example 176],57 nM,72 nM
C=C(C)[C@@H]1CC[C@]2(C(=O)NCCc3cccc(C(=O)NCc4ccc(C(=O)N[C@@H](C(=O)O)[C@H](C)N5CCN(C)CC5)cc4)c3)CC[C@]3(C)C(CCC4[C@@]5(C)CC[C@H](O)C(C)(C)C5CC[C@]43C)C12 (stereo partly drawn) [Example 177],92 nM,8 nM
C=C(C)[C@@H]1CC[C@]2(C(=O)NCCc3cccc(C(=O)NCc4ccc(C(=O)N5CC(O)C[C@@H]5C(=O)O)cc4)c3)CC[C@]3(C)C(CCC4[C@@]5(C)CC[C@H](O)C(C)(C)C5CC[C@]43C)C12 (stereo partly drawn) [Example 178],35 nM,21 nM
C=C(C)[C@@H]1CC[C@]2(C(=O)NCCc3cccc(C(=O)NCc4ccc(N(C)C)cc4)c3)CC[C@]3(C)C(CCC4[C@@]5(C)CC[C@H](O)C(C)(C)C5CC[C@]43C)C12 (stereo partly drawn) [Example 179],98 nM,72 nM
C=C(C)[C@@H]1CC[C@]2(C(=O)NCCc3cccc(C(=O)NCc4ccc(N)cc4)c3)CC[C@]3(C)C(CCC4[C@@]5(C)CC[C@H](O)C(C)(C)C5CC[C@]43C)C12 (stereo partly drawn) [Example 181],28 nM,19 nM
C=C(C)[C@@H]1CC[C@]2(C(=O)NCCc3cccc(C(=O)NCc4ccc(C(=O)N5CCN(C(=O)OC(C)(C)C)C(C(=O)OC)C5)cc4)c3)CC[C@]3(C)C(CCC4[C@@]5(C)CC[C@H](O)C(C)(C)C5CC[C@]43C)C12 (stereo partly drawn) [Example 183],108 nM,44 nM
C=C(C)[C@@H]1CC[C@]2(C(=O)NCCc3cccc(C(=O)NCc4ccc(C(=O)NC(Cc5c[nH]cn5)C(=O)O)cc4)c3)CC[C@]3(C)C(CCC4[C@@]5(C)CC[C@H](O)C(C)(C)C5CC[C@]43C)C12 (stereo partly drawn) [Example 184],830 nM,104 nM
C=C(C)[C@@H]1CC[C@]2(C(=O)NCCc3cccc(C(=O)NCc4ccc(C(=O)NC(CO)C(=O)O)cc4)c3)CC[C@]3(C)C(CCC4[C@@]5(C)CC[C@H](O)C(C)(C)C5CC[C@]43C)C12 (stereo partly drawn) [Example 185],36 nM,14 nM
C=C(C)[C@@H]1CC[C@]2(C(=O)NCc3cc(C(=O)NCc4cccc(C(=O)O)c4F)ccc3F)CC[C@]3(C)C(CCC4[C@@]5(C)CC[C@H](O)C(C)(C)C5CC[C@]43C)C12 (stereo partly drawn) [Example 186],830 nM,120 nM
C=C(C)[C@@H]1CC[C@]2(C(=O)NCCc3cccc(C(=O)NCc4ccc(C(=O)NCc5ncccc5C(=O)OC)cc4)c3)CC[C@]3(C)C(CCC4[C@@]5(C)CC[C@H](O)C(C)(C)C5CC[C@]43C)C12 (stereo partly drawn) [Example 187],40 nM,8 nM
C=C(C)[C@@H]1CC[C@]2(C(=O)NCCc3cccc(C(=O)NCc4ccc(O)cc4)c3)CC[C@]3(C)C(CCC4[C@@]5(C)CC[C@H](O)C(C)(C)C5CC[C@]43C)C12 (stereo partly drawn) [Example 188],37 nM,12 nM
C=C(C)[C@@H]1CC[C@]2(C(=O)NCCc3cccc(C(=O)NCc4ccc(C(=O)NCc5cccnc5C(=O)OC)cc4)c3)CC[C@]3(C)C(CCC4[C@@]5(C)CC[C@H](O)C(C)(C)C5CC[C@]43C)C12 (stereo partly drawn) [Example 189],25 nM,4 nM
C=C(C)[C@@H]1CC[C@]2(C(=O)NCCc3cccc(C(=O)NCc4ccc(NCCCN5CCOCC5)cc4)c3)CC[C@]3(C)C(CCC4[C@@]5(C)CC[C@H](O)C(C)(C)C5CC[C@]43C)C12 (stereo partly drawn) [Example 191],16 nM,29 nM
C=C(C)[C@@H]1CC[C@]2(C(=O)NCCc3cccc(C(=O)NCc4ccc(C(=O)NCCN5CCNCC5)cc4)c3)CC[C@]3(C)C(CCC4[C@@]5(C)CC[C@H](O)C(C)(C)C5CC[C@]43C)C12 (stereo partly drawn) [Example 192],7 nM,7 nM

SMILES,EC50 [1],IC50 (HIV-1NL4-3)
C=C(C)[C@@H]1CC[C@]2(C(=O)NCCc3cccc(C(=O)NCc4ccc(C(=O)NCc5cccnc5C(=O)O)cc4)c3)CC[C@]3(C)C(CCC4[C@@]5(C)CC[C@H](O)C(C)(C)C5CC[C@]43C)C12 (stereo partly drawn) [Example 193],2 nM,9 nM
C=C(C)[C@@H]1CC[C@]2(C(=O)NCCc3cccc(C(=O)NCc4ccc(C(=O)N5CCNC(C(=O)O)C5)cc4)c3)CC[C@]3(C)C(CCC4[C@@]5(C)CC[C@H](O)C(C)(C)C5CC[C@]43C)C12 (stereo partly drawn) [Example 194],16 nM,18 nM
C=C(C)[C@@H]1CC[C@]2(C(=O)NCCc3cccc(C(=O)NCc4ccc(C(=O)NCc5ncccc5C(=O)O)cc4)c3)CC[C@]3(C)C(CCC4[C@@]5(C)CC[C@H](O)C(C)(C)C5CC[C@]43C)C12 (stereo partly drawn) [Example 195],5 nM,6 nM
C=C(C)[C@@H]1CC[C@]2(C(=O)NCCc3cccc(C(=O)NCc4ccc(OCCCN5CCOCC5)cc4)c3)CC[C@]3(C)C(CCC4[C@@]5(C)CC[C@H](O)C(C)(C)C5CC[C@]43C)C12 (stereo partly drawn) [Example 196],12.5 nM,13 nM
C=C(C)[C@@H]1CC[C@]2(C(=O)NCCc3cccc(C(=O)NCc4ccccc4O)c3)CC[C@]3(C)C(CCC4[C@@]5(C)CC[C@H](O)C(C)(C)C5CC[C@]43C)C12 (stereo partly drawn) [Example 198],468 nM,57.6 nM
C=C(C)[C@@H]1CC[C@]2(C(=O)NCCc3cccc(C(=O)NCc4ccccc4)c3)CC[C@]3(C)C(CCC4[C@@]5(C)CC[C@H](O)C(C)(C)C5CC[C@]43C)C12 (stereo partly drawn) [Example 199],297 nM,53.2 nM
C=C(C)[C@@H]1CC[C@]2(C(=O)NCCc3cccc(C(=O)NCc4ccccc4OC)c3)CC[C@]3(C)C(CCC4[C@@]5(C)CC[C@H](O)C(C)(C)C5CC[C@]43C)C12 (stereo partly drawn) [Example 200],759 nM,76.3 nM
C=C(C)[C@@H]1CC[C@]2(C(=O)NCCc3cccc(C(=O)NCc4ccc(C(=O)OC)cn4)c3)CC[C@]3(C)C(CCC4[C@@]5(C)CCC(=O)C(C)(C)C5CC[C@]43C)C12 (stereo partly drawn) [Example 201],15.5 nM,28.8 nM
C=C(C)[C@@H]1CC[C@]2(C(=O)NCCc3cccc(C(=O)NCc4ccc(C(=O)O)cn4)c3)CC[C@]3(C)C(CCC4[C@@]5(C)CCC(=O)C(C)(C)C5CC[C@]43C)C12 (stereo partly drawn) [Example 202],20.5 nM,22.2 nM
C=C(C)[C@@H]1CC[C@]2(C(=O)NCCc3cccc(C(=O)NCc4cccc(COCc5cccc(C(=O)O)c5)c4)c3)CC[C@]3(C)C(CCC4[C@@]5(C)CC[C@H](O)C(C)(C)C5CC[C@]43C)C12 (stereo partly drawn) [Example 208],42.5 nM,28.9 nM
C=C(C)[C@@H]1CC[C@]2(C(=O)NCCc3cccc(C(=O)NCC4CCC(C(=O)OC)CC4)c3)CC[C@]3(C)C(CCC4[C@@]5(C)CC[C@H](O)C(C)(C)C5CC[C@]43C)C12 (stereo partly drawn) [Example 210],33 nM,30.8 nM
C=C(C)[C@@H]1CC[C@]2(C(=O)NCCc3cccc(C(=O)NCC4CCC(C(=O)O)CC4)c3)CC[C@]3(C)C(CCC4[C@@]5(C)CC[C@H](O)C(C)(C)C5CC[C@]43C)C12 (stereo partly drawn) [Example 211],19 nM,11.2 nM
C=C(C)[C@@H]1CC[C@]2(C(=O)NCCc3cccc(C(=O)NCC4(CC(=O)O)CCCCC4)c3)CC[C@]3(C)C(CCC4[C@@]5(C)CC[C@H](O)C(C)(C)C5CC[C@]43C)C12 (stereo partly drawn) [Example 212],96.5 nM,85 nM
C=C(C)[C@@H]1CC[C@]2(C(=O)NCCc3cccc(C(=O)N[C@H](C)C4CCC(C(=O)OC)CC4)c3)CC[C@]3(C)C(CCC4[C@@]5(C)CC[C@H](O)C(C)(C)C5CC[C@]43C)C12 (stereo partly drawn) [Example 213],22 nM,38.9 nM
C=C(C)[C@@H]1CC[C@]2(C(=O)NCCc3cccc(C(=O)NCC4OC5OC(C)(C)O[C@@H]5[C@@H](O)[C@@H]4O)c3)CC[C@]3(C)C(CCC4[C@@]5(C)CC[C@H](O)C(C)(C)C5CC[C@]43C)C12 (stereo partly drawn) [Example 214],214 nM,200 nM
C=C(C)[C@@H]1CC[C@]2(C(=O)NCCc3cccc(C(=O)N[C@H](C)C4CCC(C(=O)O)CC4)c3)CC[C@]3(C)C(CCC4[C@@]5(C)CC[C@H](O)C(C)(C)C5CC[C@]43C)C12 (stereo partly drawn) [Example 215],11.5 nM,22 nM
C=C(C)[C@@H]1CC[C@]2(C(=O)NCCc3cccc(-c4nnc(Cc5ccc(C#N)cc5)o4)c3)CC[C@]3(C)C(CCC4[C@@]5(C)CC[C@H](O)C(C)(C)C5CC[C@]43C)C12 (stereo partly drawn) [Example 216],2700 nM,66.5 nM
C=C(C)[C@@H]1CC[C@]2(C(=O)NCCc3cccc(-c4nnc(Cc5ccc(-c6nn[nH]n6)cc5)o4)c3)CC[C@]3(C)C(CCC4[C@@]5(C)CC[C@H](O)C(C)(C)C5CC[C@]43C)C12 (stereo partly drawn) [Example 217],49 nM,87 nM

# Source: patent US20090275583A1, “ANTIVIRAL COMPOUNDS AND USE THEREOF” (Myriad Genetics, Incorporated, priority 2006, published 2009)
